Laboratory results published in US20200360317A1, “CARBOXYLIC ACIDS FOR TREATING/PREVENTING A SKIN DISEASE” (Proponent Biotech GmbH, priority 2016, published 2020).

How the values were obtained:
[1] = in Locke-Ringer Solution
Excerpt: • Identification: Sodium propionate (Sigma-Aldrich, Cat. P5436-100G) • Test Item Name for Report: Sodium propionate • Description: Hygroscopic white powder • Batch Number: Lot.

[2] = system: wound infection of injured skin; experiment: Treatment of infected wound of injured skin; type: in vivo; conditions: skin treated with propionate vs skin treated with water
Excerpt: The study aimed at determining whether treatment with propionate promotes skin health of wound infection of injured skin.

[3] = system: allergic hypersensitivity induced by Nickel allergen (skin); experiment: Nickel-induced allergic contact dermatitis, topical treatment, blinded clinical score of skin lesion; type: in vivo, human; conditions: 4×140 μl of 50 mM Propionate in Locke-Ringer solution over 8 hours, 60 hours after last Nickel contact; vs Locke-Ringer control; n=2
Protocol: The study aimed at determining whether treatment with propionate promotes skin health following allergic hypersensitivity (particularly allergic contact dermatitis).
Allergic hypersensitivity was induced through contact sensitization with Nickel allergen over a 12 hour time period.
The sum of the four scores given blinded to each subject (n=2) yielded in the clinical score. The results can be seen in FIGS. 1 and 2.

In the case of `CCC(=O)[O-].[Na+]` [Sodium propionate], the “Stability of Test Item in Solution” value [1] was no less than 6 months, the “Appearance of skin lesions (FIG. 4)” value [2] was “lesions are significantly reduced” and the “Clinical score of skin lesion (sum of four scores)” value [3] was “clinical score was significantly reduced”.
